{
  "source": "patent US20260167673A1",
  "about": "“NOVEL POLYPEPTIDE, POLYPEPTIDE DERIVATIVE AND USE THEREOF” (NANJING ANJI BIOTECHNOLOGY CO., LTD., priority 2023, published 2026)",
  "type_in_all_cases": "cell-based",
  "key": {"[1]": {"test_system": "human osteosarcoma cells MG63", "assay": "CCK8 proliferation inhibition, MG63", "details": "MG63, 50 μM, 48 h", "procedure": "(§1) Incubation was continued for 4 h in a cell incubator, an absorbance was measured at 450 nm, and a proliferation inhibition was calculated. Data was presented as mean±SD, and GraphPad Prism 5.0 statistical software was used. A t-test was used for comparison between two groups, while One-way Anova (Dunnett) was used for comparison among a plurality of groups."}, "[2]": {"test_system": "human multiple myeloma cells LP-1", "assay": "CCK8 proliferation inhibition, LP-1", "details": "LP-1, 50 μM, 48 h", "procedure": "as §1"}, "[3]": {"test_system": "human T lymphoblastic leukemia cells Jurkat, Clone E6-1", "assay": "CCK8 proliferation inhibition, Jurkat, Clone E6-1", "details": "Clone E6-1, 50 μM, 48 h", "procedure": "as §1"}, "[4]": {"test_system": "human liver cancer cells HCCLM3", "assay": "CCK8 proliferation inhibition, HCCLM3", "details": "HCCLM3, 50 μM, 48 h", "procedure": "as §1"}, "[5]": {"test_system": "human brain astrocytoma cells U87MG", "assay": "CCK8 proliferation inhibition, U87MG", "details": "50 μM, 48 h", "procedure": "as §1"}, "[6]": {"test_system": "human oral epidermoid carcinoma cells KB", "assay": "CCK8 proliferation inhibition, KB", "details": "50 μM, 48 h", "procedure": "as §1"}, "[7]": {"test_system": "human lymphoma cells Raji", "assay": "CCK8 proliferation inhibition, Raji", "details": "50 μM, 48 h", "procedure": "as §1"}, "[8]": {"test_system": "human endometrial cancer cells RL-952", "assay": "CCK8 proliferation inhibition, RL-952", "details": "RL-952, 50 μM, 48 h", "procedure": "as §1"}, "[9]": {"test_system": "human malignant melanoma cells SK-mel-2", "assay": "CCK8 proliferation inhibition, SK-mel-2", "details": "SK-mel-2, 50 μM, 48 h", "procedure": "as §1"}, "[10]": {"test_system": "human bladder cancer cells EJ", "assay": "CCK8 proliferation inhibition, EJ", "details": "50 μM, 48 h", "procedure": "as §1"}, "[11]": {"test_system": "human small intestine cancer cells HIC", "assay": "CCK8 proliferation inhibition, HIC", "details": "50 μM, 48 h", "procedure": "as §1"}, "[12]": {"test_system": "human breast cancer cells MDA-MB-231", "assay": "CCK8 proliferation inhibition, MDA-MB-231", "details": "MDA-MB-231, 50 μM, 48 h", "procedure": "as §1"}, "[13]": {"test_system": "human esophageal cancer cells Eca-109", "assay": "CCK8 proliferation inhibition, Eca-109", "details": "Eca-109, 50 μM, 48 h", "procedure": "as §1"}, "[14]": {"test_system": "human gastric cancer cells BGC-823", "assay": "CCK8 proliferation inhibition, BGC-823", "details": "BGC-823, 50 μM, 48 h", "procedure": "as §1"}, "[15]": {"test_system": "human prostate cancer cells PC-3", "assay": "CCK8 proliferation inhibition, PC-3", "details": "PC-3, 50 μM, 48 h", "procedure": "as §1"}, "[16]": {"test_system": "human peripheral blood B lymphocytes RPMI 8226 in multiple myeloma", "assay": "CCK8 proliferation inhibition, RPMI 8226", "details": "RPMI 8226, 50 μM, 48 h", "procedure": "as §1"}},
  "note": "Where no end group is shown, it is not given here.",
  "data": [
    {"sequence": "MERAGVPGFSPRRSSVEAKMQSTSCSVRKSSTVTAWPAVVLLLSWGQRRGG [HMMW]", "values": [
      {"measurement": "Inhibition (%)", "setting": "[1]", "result": "52.544 ± 2.562", "unit": "%"},
      {"measurement": "OD", "setting": "[1]", "result": "0.435 ± 0.024"},
      {"measurement": "Inhibition (%)", "setting": "[2]", "result": "47.561 ± 4.259", "unit": "%"},
      {"measurement": "OD", "setting": "[2]", "result": "0.462 ± 0.038"},
      {"measurement": "Inhibition (%)", "setting": "[3]", "result": "44.307 ± 3.404", "unit": "%"},
      {"measurement": "OD", "setting": "[3]", "result": "0.602 ± 0.037"},
      {"measurement": "Inhibition (%)", "setting": "[4]", "result": "53.926 ± 7.634", "unit": "%"},
      {"measurement": "OD", "setting": "[4]", "result": "0.460 ± 0.076"},
      {"measurement": "Inhibition (%)", "setting": "[5]", "result": "62.176 ± 2.001", "unit": "%"},
      {"measurement": "OD", "setting": "[5]", "result": "0.365 ± 0.019"},
      {"measurement": "Inhibition (%)", "setting": "[6]", "result": "53.399 ± 3.971", "unit": "%"},
      {"measurement": "OD", "setting": "[6]", "result": "0.471 ± 0.040"},
      {"measurement": "Inhibition (%)", "setting": "[7]", "result": "54.560 ± 3.675", "unit": "%"},
      {"measurement": "OD", "setting": "[7]", "result": "0.576 ± 0.047"},
      {"measurement": "Inhibition (%)", "setting": "[8]", "result": "50.988 ± 3.897", "unit": "%"},
      {"measurement": "OD", "setting": "[8]", "result": "0.422 ± 0.034"},
      {"measurement": "Inhibition (%)", "setting": "[9]", "result": "46.311 ± 4.884", "unit": "%"},
      {"measurement": "OD", "setting": "[9]", "result": "0.466 ± 0.042"},
      {"measurement": "Inhibition (%)", "setting": "[10]", "result": "47.820 ± 1.486", "unit": "%"},
      {"measurement": "OD", "setting": "[10]", "result": "0.638 ± 0.018"},
      {"measurement": "Inhibition (%)", "setting": "[11]", "result": "50.213 ± 2.165", "unit": "%"},
      {"measurement": "OD", "setting": "[11]", "result": "0.507 ± 0.022"},
      {"measurement": "Inhibition (%)", "setting": "[12]", "result": "65.216 ± 4.512", "unit": "%"},
      {"measurement": "OD", "setting": "[12]", "result": "0.429 ± 0.056"},
      {"measurement": "Inhibition (%)", "setting": "[13]", "result": "63.071 ± 2.982", "unit": "%"},
      {"measurement": "OD", "setting": "[13]", "result": "0.350 ± 0.028"},
      {"measurement": "Inhibition (%)", "setting": "[14]", "result": "47.730 ± 4.739", "unit": "%"},
      {"measurement": "OD", "setting": "[14]", "result": "0.510 ± 0.046"},
      {"measurement": "Inhibition (%)", "setting": "[15]", "result": "50.341 ± 3.864", "unit": "%"},
      {"measurement": "OD", "setting": "[15]", "result": "0.509 ± 0.040"},
      {"measurement": "Inhibition (%)", "setting": "[16]", "result": "52.930 ± 4.562", "unit": "%"},
      {"measurement": "OD", "setting": "[16]", "result": "0.578 ± 0.056"}
    ]}
  ]
}
